Common to all, as to type: in vivo
The test system of series [1] is carrageenin-induced oedema. The experiment in a line: carrageenin-induced oedema test in rats (i.v.).
The subject of series [2] is Nystatin-induced oedema. The experiment in a line: Nystatin-induced oedema test (i.v.). The note with it: antiinflammatory equivalent doses, at the 48th, 72nd, and 96th hours, vs prednisolone hemisuccinate and hydrocortisone hemisuccinate.
Series [3] relates to anaphylactic shock. The series is described as follows: protection against anaphylactic shock in mice. The note with it: Mus musculus, ip. From the text: (§1) In the protection against anaphylactic shock and endotoxin shock in mice, the following results have been obtained: […]
For series [4], the system named is endotoxin shock. The series is described as follows: protection against endotoxin shock in mice. The note with it: Mus musculus, sc.
From the text: as §1

The test system of series [5] is hepatic neoglycogenetic activity. The experiment in a line: hepatic neoglycogenetic activity in adrenalectomized rats.
Series [6] concerns equilibrium sodium-potassium. The series is described as follows: mineralocorticoid effects in the adrenalectomized rats. The following applies: at doses which provide the same pharmacological effect, vs prednisolone or hydrocortisone hemisuccinate.
The mark [7] stands for this setting: relative to hydrocortisone hemisuccinate.
Setting [8] is: relative to prednisolone hemisuccinate.

The term ED50 denotes the dose that gives a 50% effect, or the effect in half of the subjects. For `CC1=NC2(C(=O)COC(=O)CCC(=O)O)C(CC3C4CCC5=CC(=O)C=CC5(C)C4C(O)CC32C)O1` (stereo not drawn) [Deflazacort hemisuccinate, 11β,21-dihydroxy-2'-methyl-5'H-pregna-1,4-dieno[17,16-d]oxazole-3,20-dione-21-hemisuccinate], the “times more active than hydrocortisone hemisuccinate” value in series [1] (setting [7]) is recorded as 142 times. In addition, in series [1] (setting [8]), the “times more active than prednisolone hemisuccinate” value stood at 15 times. Further, the “duration of antiphlogistic activity versus reference compounds” value in series [2] is on record as “longer lasting antiphlogistic activity than the reference compounds”. For the same molecule, the ED50 in series [3] was 22 mg/kg; in series [4], 31 mg/kg. Moreover, the “hepatic neoglycogenetic activity, times more potent than hydrocortisone hemisuccinate” value in series [5] (setting [7]) is listed as approximately 40 times. Further, the “hepatic neoglycogenetic activity, times more potent than prednisolone hemisuccinate” value in series [5] (setting [8]) is recorded as “about 5 times”. Further, the “mineralocorticoid effects (effect on equilibrium sodium-potassium)” value in series [6] is “affects the equilibrium sodium-potassium much less than prednisolone or hydrocortisone hemisuccinate”.

As for `CC12CCC(=O)C=C1CCC1C2C(O)CC2(C)C1CCC2(O)C(=O)COC(=O)CCC(=O)O` (stereo not drawn) [Hydrocortisone hemisuccinate, hydrocortisone hemisuccinate], the median effective dose (ED50) in series [3] turned out to be 143 mg/kg; in series [4] it was 180 mg/kg.

Turning to `C[C@]12C=CC(=O)C=C1CC[C@@H]1[C@@H]2[C@@H](O)C[C@@]2(C)[C@H]1CC[C@]2(O)C(=O)COC(=O)CCC(=O)O` [Prednisolone hemisuccinate, prednisolone hemisuccinate], the figures for the median effective dose (ED50) in series [3] and in series [4] were 35.5 mg/kg and 50.5 mg/kg, respectively.

The record behind these values is patent US4440764A, “Water soluble esters of steroid-oxazole and pharmaceutical compositions containing them” (Gruppo Lepetit S.p.A., priority 1980, dated 1984).
